From US20250059395A1, “SURFACTANTS FOR INKS, PAINTS, AND ADHESIVES” (AdvanSix Resins & Chemicals LLC, priority 2023, published 2025)

Assay: Critical micelle concentration and surface tension by Wilhelmy plate method
Format: physicochemical
Conditions: comparison of Surfactant 9 and Comparative Surfactant
Description: As surfactant concentration increases, surface tension decreases. Once the surface is completely overlaid with surfactant molecules, micelles begin to form. This point represents the CMC, as well as the minimum surface tension. Further addition of surfactant will not further affect the surface tension. CMC may therefore be measured by observing the change in surface tension as a function of surfactant concentration. One such method for measuring this value is the Wilhemy plate method. A Wilhelmy plate is usually a thin iridium-platinum plate attached to a balance by a wire and placed perpendicularly to the air-liquid interface. The balance is used to measure the force exerted on the plate by wetting. This value is then used to calculate the surface tension (Y) according to Equation 1: […]
Nuclear magnetic resonance (NMR) spectroscopy was performed on a Bruker 500 MHz spectrometer. The critical micelle concentration (CMC) was determined by the Wilhelmy plate method at 23° C. with a tensiometer (DCAT 11, DataPhysics Instruments GmbH) equipped with a Pt—Ir plate. Dynamic surface tension was determined with a bubble pressure tensiometer (Krüss BP100, Krüss GmbH), at 23° C. Contact angle was determined with the optical contact angle goniometer (OCA 15 Pro, DataPhysics GmbH) equipped with a digital camera.

Structure (SMILES) | surfactant properties (activity in words)
C[N+](C)(CCCCCC(=O)NCCC[Si](O[Si](C)(C)C)(O[Si](C)(C)C)O[Si](C)(C)C)CC(=O)O [Comparative Surfactant, N-(carboxymethyl)-6-((3-(1,1,1,5,5,5-hexamethyl-3-((trimethylsilyl)oxy)trisiloxan-3-yl)propyl)amino)-N,N-dimethyl-6-oxohexan-1-aminium bromide] | inferior surfactant properties
C[N+](C)(CCCCCC(=O)O)CCCCCC(=O)NCCC[Si](O[Si](C)(C)C)(O[Si](C)(C)C)O[Si](C)(C)C [Surfactant 9, N-(5-carboxypentyl)-6-((3-(1,1,1,5,5,5-hexamethyl-3-((trimethylsilyl)oxy)trisiloxan-3-yl)propyl)amino)-N,N-dimethyl-6-oxohexan-1-aminium bromide] | excellent activity
